Measurements as given in PubChem BioAssay (NCI).
Where “and” joins values, the source holds several entries; their conditions need not be identical. Equal values may be shown once.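 Tested at 5 concentrations; 48 h exposure; 96-well plates; endpoints linearly interpolated, else capped at highest concentration. GI50 = concentration required for 50% inhibition of growth. TGI: concentration producing complete growth inhibition.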

Key:
Test in all cases: inhibition of tumour cell growth, NCI panel, 48 h
[1] = system: 786-0 renal
[2] = system: A498 renal
[3] = system: ACHN renal
[4] = system: CCRF-CEM leukemia
[5] = system: SK-OV-3 ovarian
[6] = system: SNB-19 CNS
[7] = system: SW-620 colon
[8] = system: T-47D breast
[9] = system: TK-10 renal
[10] = system: UACC-62 melanoma

Row | Compound | GI50 [1] | TGI [1] | GI50 [2] | TGI [2] | GI50 [3] | TGI [3] | GI50 [4] | TGI [4] | GI50 [5] | TGI [5] | GI50 [6] | TGI [6] | GI50 [7] | TGI [7] | GI50 [8] | TGI [8] | GI50 [9] | TGI [9] | GI50 [10] | TGI [10]
1 | Cn1c(C(N)=O)cc2c1-c1nc(Nc3ccccc3)ncc1CCC2 | 4550 nM | 34.5 µM | 0.204 µM | 0.955 µM | 3610 nM | 50.5 µM | 6210 nM | > 100 µM | 3.51 µM | 20.8 µM | 11.5 µM | > 100 µM | 6310 nM | 97.7 µM | 7120 nM | 37.4 µM | 3970 nM | 52.3 µM | 3920 nM | 17.7 µM
2 | O=C(Nc1ccc(-c2nc3cc4ccccc4cc3[nH]2)cc1)c1cccc(Br)c1 | 5480 nM | 18 µM | 47.1 µM | > 100 µM | 12300 nM | 31 µM | 9550 nM | 80.4 µM | 16.3 µM | 32.8 µM | 39.2 µM | > 100 µM | 3090 nM | 12.8 µM | 4090 nM | 18.1 µM | 4000 nM | 11.3 µM | 15800 nM | 30.5 µM
3 | O=C1/C(=C/c2cccc([N+](=O)[O-])c2)COc2ccc(O)c(O)c21 | 1350 nM | 2.85 µM | 1.42 µM | 3.26 µM | 1360 nM | 2.68 µM | 335 nM | 2.43 µM | 3.41 µM | 12.6 µM | 1.55 µM | 2.98 µM | 1140 nM | 3.08 µM | 1170 nM | 3.92 µM | 1700 nM | 3.21 µM | 1570 nM | 2.98 µM
4 | CCn1c(=O)c(-c2ccn[nH]2)cc2c(C)nc(N)nc21 | 511 nM | 5.59 µM | 0.209 µM | 0.726 µM | 1490 nM | > 100 µM | 1680 nM | > 100 µM | 0.698 µM | 3.4 µM | 4.57 µM | > 100 µM | 2850 nM | > 100 µM | 173 nM | 0.748 µM | 871 nM | 4.62 µM | 687 nM | 3.54 µM
5 | CCC1=C(C)/C(=C/c2[nH]c(C)c(C(=O)CCCCC(=O)OC)c2C)N=C1c1ccc[nH]1 | 15100 nM | 32 µM | 23.9 µM | 59.5 µM | 15300 nM | 31.1 µM | 204 nM | 6.63 µM | 34.6 µM | > 80.6 µM | 15.1 µM | 38.4 µM | 2180 nM | 4.82 µM | 3450 nM | 13.8 µM | 24500 nM | 71.1 µM | 8700 nM | 38.9 µM
6 | CC(C)(C)[Si](C)(C)OCC1CCC(n2cnc3c(NC(=O)c4ccccc4)ncnc32)O1 (stereo unspecified) | – | 31.3 µM | – | 35.5 µM | – | 40.3 µM | – | 47.1 µM | – | 44.9 µM | – | 33.9 µM | – | 35 µM | – | 60.6 µM | – | 38.6 µM | – | 29.7 µM
7 | Cc1[nH]c(=O)[nH]c(=O)c1N(CCF)CCCl | – | 1470 µM | 247 µM and 311 µM | 507 µM and 466 µM and 967 µM | – | 1220 µM | 96000 nM and 48400 nM | 796 µM and 626 µM and 791 µM | 332 µM and 472 µM | 741 µM and 1330 µM and 1240 µM | 711 µM and 250 µM | 1160 µM and 2500 µM and 1820 µM | 321000 nM and 289000 nM and 147000 nM | 1100 µM and 805 µM | – | 1340 µM | – | 1070 µM | 173000 nM and 360000 nM | 419 µM and 1040 µM and 673 µM
8 | COc1cc(/C=C(/C)[N+](=O)[O-])ccc1O | 1790 nM and 1940 nM | 3.26 µM and 3.51 µM | 5.89 µM and 11.6 µM | 13.7 µM and 23.8 µM | 2380 nM and 1900 nM | 5.44 µM and 4 µM | 1850 nM | 4.91 µM | 8.15 µM and 4.78 µM | 20.4 µM and 16.9 µM | 4.55 µM and 5.02 µM | 16.2 µM and 17.5 µM | 1690 nM and 1570 nM | 3.67 µM and 3.11 µM | 2070 nM and 2250 nM | 5.05 µM and 5.72 µM | 1970 nM and 1480 nM | 3.57 µM and 2.82 µM | 1770 nM and 1800 nM | 3.7 µM and 3.71 µM
9 | COC(=O)/C=C/c1cc(O)c2c(c1)C(C(=O)OC)C(c1ccc(O)c(O)c1)O2 (stereo unspecified) | 626 nM | > 56.3 µM | 2.85 µM and 0.735 µM | 16.3 µM and 6.21 µM | 183 nM and 67.6 nM | 43.6 µM and > 82.3 µM | 89.2 nM | 22.5 µM and > 100 µM | 1 µM and 0.585 µM | 71.7 µM and 35.7 µM | 0.131 µM and 0.0868 µM | > 100 µM | 108 nM | > 100 µM | 1550 nM | 57.9 µM | 5240 nM and 1270 nM | 67.5 µM and > 23.5 µM | 67.8 nM | 4.56 µM and 27.9 µM
